Test system: HCV replicon
Test: HCV replicon replication assay (NPT ELISA) in Huh-7 replicon-containing cells
Type: cell-based
Conditions: Hepatitis C virus, 72 h; HCV replicon in Huh-7 cells, three days incubation; read-out: EC50
In short: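 Replication was scored by capture ELISA of neomycin phosphotransferase, whose level tracks replicon replication, after graded compound treatment. The cells were Huh-7 harbouring an HCV-IRES/neo/EMCV-IRES/NS3–NS5B/3′-NTR replicon, plated at 6000-7500 cells/well and dosed 24 h later at 60-70% confluence; interferon alpha was the positive control.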

C=C[C@@H]1C[C@]1(NC(=O)[C@@H]1C[C@@H](Oc2cc(-c3ccccc3)nc3cc(OC)ccc23)CN1C(=O)[C@@H](CC(=O)N1CCC(F)(F)C1)C(C)(C)C)C(=O)NS(=O)(=O)C1CC1 [Compound 89, (2S,4R)-1-((S)-2-tert-butyl-4-(3,3-difluoropyrrolidin-1-yl)-4-oxobutanoyl)-N-((1R,2S)-1-(cyclopropylsulfonyl-carbamoyl)-2-vinylcyclopropyl)-4-(7-methoxy-2-phenylquinolin-4-yloxy)pyrrolidine-2-carboxamide]
EC50: < 1000 nM

C=C[C@@H]1C[C@]1(NC(=O)[C@@H]1C[C@@H](Oc2cc(-c3ccccc3)nc3cc(OC)ccc23)CN1C(=O)[C@@H](CC(=O)N1CCC(N(C)C)C1)C(C)(C)C)C(=O)NS(=O)(=O)C1CC1 (stereo partly drawn) [Compound 90, (2S,4R)-1-((2S)-2-tert-butyl-4-(3-(dimethylamino)pyr-rolidin-1-yl)-4-oxobutanoyl)-N-((1R,2S)-1-(cyclopropylsulfonyl-carbamoyl)-2-vinylcyclopropyl)-4-(7-methoxy-2-phenylquinolin-4-yloxy)pyrrolidine-2-carboxamide]
EC50: 1000 to 10000 nM

C=CC1C[C@]1(NC(=O)[C@@H]1C[C@@H](Oc2cc(-c3ccccc3)nc3cc(OC)ccc23)CN1C(=O)[C@@H](CC(=O)N1CCCCC1)CC(C)C)C(=O)NS(=O)(=O)C1CC1 (stereo partly drawn) [Compound 91, (2S,4R)-N-((1R,2R)-1-(cyclopropyl-sulfonylcarbamoyl)-2-vinylcyclopropyl)-4-(7-methoxy-2-phenylquinolin-4-yloxy)-1-((R)-4-methyl-2-(2-oxo-2-(piperidin-1-yl)ethyl)pentano-yl)pyrrolidine-2-carboxamide]
EC50: < 1000 nM

C=C[C@@H]1C[C@]1(NC(=O)[C@@H]1C[C@@H](Oc2cc(-c3ccccc3)nc3cc(OC)ccc23)CN1C(=O)[C@@H](CC(=O)N1CCCCC1)C(C)(C)C)C(=O)NS(=O)(=O)C1CCCCC1 [Compound 92, (2S,4R)-1-((S)-2-tert-butyl-4-oxo-4-(piperidin-1-yl)butanoyl)-N-((1R,2S)-1-(cyclo-hexylsulfonyl-carbamoyl)-2-vinyl-cyclopropyl)-4-(7-methoxy-2-phenylquinolin-4-yloxy)pyrrolidine-2-carboxamide]
EC50: < 1000 nM

C=C[C@@H]1C[C@]1(NC(=O)[C@@H]1C[C@@H](OC(=O)Nc2ccccc2C(=O)OC)CN1C(=O)[C@@H](CC(=O)N1CCCCC1)C(C)(C)C)C(=O)NS(=O)(=O)C1CC1 [Compound 93, methyl 2-(((3R,5S)-1-((S)-2-tert-butyl-4-oxo-4-(piperidin-1-yl)butanoyl)-5-((1R,2S)-1-(cyclo-propylsulfonyl-carbamoyl)-2-vinylcyclopropyl-carbamoyl)pyrrolidin-3-yloxy)carbonyl-amino)benzoate]
EC50: < 1000 nM

C=C[C@@H]1C[C@]1(NC(=O)[C@@H]1C[C@@H](OC(=O)Nc2ccccc2C(=O)OCC)CN1C(=O)[C@@H](CC(=O)N1CCCCC1)C(C)(C)C)C(=O)NS(=O)(=O)C1CC1 [Compound 94]
EC50: < 1000 nM

C=C[C@@H]1C[C@]1(NC(=O)[C@@H]1C[C@@H](OC(=O)Nc2cccc(Oc3ccccc3)c2)CN1C(=O)[C@@H](CC(=O)N1CCCCC1)C(C)(C)C)C(=O)NS(=O)(=O)C1CC1 [Compound 95, (3R,5S)-1-((S)-2-tert-butyl-4-oxo-4-(piperidin-1-yl)butanoyl)-5-((1R,2S)-1-(cyclopropylsulfonyl-carbamoyl)-2-vinylcyclopropyl-carbamoyl)pyrrolidin-3-yl 3-phenoxyphenyl-carbamate]
EC50: 1000 to 10000 nM

C=C[C@@H]1C[C@]1(NC(=O)[C@@H]1C[C@@H](Oc2cc(-c3csc(NC(C)C)n3)nc3cc(OC)ccc23)CN1C(=O)[C@@H](CC(=O)N1CCCCC1)C(C)(C)C)C(=O)NS(=O)(=O)C1CC1 [Compound 96, (2S,4R)-1-((S)-2-tert-butyl-4-oxo-4-(piperidin-1-yl)butanoyl)-N-((1R,2S)-1-(cyclopropylsulfonyl-carbamoyl)-2-vinylcyclopropyl)-4-(2-(2-(isopropyl-amino)thiazol-4-yl)-7-methoxyquinolin-4-yloxy)pyrrolidine-2-carboxamide]
EC50: < 1000 nM

COc1ccc2c(O[C@@H]3C[C@@H](C(=O)NC4(C(=O)NS(=O)(=O)C5CC5)CCC4)N(C(=O)[C@@H](CC(=O)N4CCCCC4)C(C)(C)C)C3)cc(-c3ccccc3)nc2c1 [Compound 97, (2S,4R)-1-((S)-2-tert-butyl-4-oxo-4-(piperidin-1-yl)butanoyl)-N-(1-(cyclopropylsulfonyl-carbamoyl)cyclo-butyl)-4-(7-methoxy-2-phenylquinolin-4-yloxy)pyrrolidine-2-carboxamide]
EC50: 1000 to 10000 nM

COc1ccc2c(O[C@@H]3C[C@@H](C(=O)NC4(C(=O)NS(=O)(=O)C5CC5)CCCC4)N(C(=O)[C@@H](CC(=O)N4CCCCC4)C(C)(C)C)C3)cc(-c3ccccc3)nc2c1 [Compound 98, (2S,4R)-1-((S)-2-tert-butyl-4-oxo-4-(piperidin-1-yl)butanoyl)-N-(1-(cyclopropylsulfonyl-carbamoyl)cyclo-pentyl)-4-(7-methoxy-2-phenylquinolin-4-yloxy)pyrrolidine-2-carboxamide]
EC50: 1000 to 10000 nM

C=C[C@@H]1C[C@]1(NC(=O)[C@@H]1C[C@@H](OC(=O)n2c3ccccc3c3ccccc32)CN1C(=O)[C@@H](CC(=O)N1CCCCC1)C(C)(C)C)C(=O)NS(=O)(=O)C1CC1 [Compound 99, (3R,5S)-1-((S)-2-tert-butyl-4-oxo-4-(piperidin-1-yl)butanoyl)-5-((1R,2S)-1-(cyclo-propylsulfonyl-carbamoyl)-2-vinyl-cyclopropyl-carbamoyl)pyrrolidin-3-yl 9H-carbazole-9-carboxylate]
EC50: < 1000 nM

C=C[C@@H]1C[C@]1(NC(=O)[C@@H]1C[C@@H](Oc2cc(-c3csc(NC(C)C)n3)nc3cc(OC)ccc23)CN1C(=O)[C@@H](CC(=O)N1CCOCC1)C(C)(C)C)C(=O)NS(=O)(=O)C1CC1 [Compound 100, (2S,4R)-1-((S)-2-tert-butyl-4-morpholino-4-oxobutanoyl)-N-((1R,2S)-1-(cyclopropylsulfonyl-carbamoyl)-2-vinylcyclopropyl)-4-(2-(2-(isopropyl-amino)thiazol-4-yl)-7-methoxyquinolin-4-yloxy)pyrrolidine-2-carboxamide]
EC50: < 1000 nM

C=C[C@@H]1C[C@]1(NC(=O)[C@@H]1C[C@@H](Oc2nccc3cc(OC)ccc23)CN1C(=O)[C@@H](CC(=O)N1CCCCC1)C(C)(C)C)C(=O)NS(=O)(=O)C1CC1 [Compound 101, (2S,4R)-1-((S)-2-tert-butyl-4-oxo-4-(piperidin-1-yl)butanoyl)-N-((1R,2S)-1-(cyclo-propylsulfonyl-carbamoyl)-2-vinylcyclopropyl)-4-(6-methoxyisoquinolin-1-yloxy)pyrrolidine-2-carboxamide]
EC50: < 1000 nM

C=C[C@@H]1C[C@]1(NC(=O)[C@@H]1C[C@@H](Oc2cc(-c3ccccc3)nc3cc(OC)ccc23)CN1C(=O)[C@@H](CC(=O)N1CCCCC1)CC(C)(C)C)C(=O)NS(=O)(=O)C1CC1 [Compound 104, (2S,4R)-N-((1R,2S)-1-(cyclopropyl-sulfonylcarbamoyl)-2-vinylcyclopropyl)-1-((R)-4,4-dimethyl-2-(2-oxo-2-(piperidin-1-yl)ethyl)pentanoyl)-4-(7-methoxy-2-phenylquinolin-4-yloxy)pyrrolidine-2-carboxamide]
EC50: < 1000 nM

Reference: patent US9133115B2 (ACHILLION PHARMACEUTICALS, INC., priority 2008, dated 2015)
